# Assay results taken from patent EP4562003B1, “NOVEL 7-SUBSTITUTED INDOLE SULFONAMIDE DERIVATIVES” (F. Hoffmann-La Roche AG, priority 2022, dated 2024).
# pIC50: −log10 of the molar value.
# Target: human GPR17 short isoform (Homo sapiens, UniProt Q13304)
# Test: GPR17 cAMP assay (TR-FRET cAMP quantification, antagonist mode)
# Format: cell-based
# Details: CHO-K1 cells stably expressing human GPR17 short isoform; EC80 of agonist MDL29,951; forskolin 15µM; IBMX 0.5mM; 30 minutes at room temperature; read-out: hGPR17 cAMP IC50
# Procedure: GPR17 cAMP Assay Protocol:
# CHO-K1 cells stably expressing vector containing untagged human GPR17 short isoform (Roche) were cultured at 37°C / 5% CO2 in DMEM (Dulbecco's Modified Eagle Medium):F-12 (1:1) supplemented with 10% foetal bovine serum and 400 µg/ml Geneticin.
# Changes in intracellular cyclic adenosine monophosphate (cAMP) levels were quantified using the Nano-TRF Detection Assay kit (Roche Diagnostics, Cat. No. 05214386001). This assay allows for direct cAMP quantification in a homogeneous solution. cAMP is detected based on time-resolved fluorescence energy transfer (TR-FRET) and competitive binding of ruthenylated cAMP and endogenous cAMP to an anti-cAMP monoclonal antibody labeled with AlexaFluor-700. The Ruthenium complex serves as the FRET donor and transfers energy to AlexaFluor-700. The FRET signal is inversely proportional to the cAMP concentration.
# CHO-GPR17S cells were detached with Accutase and resuspended in assay buffer consisting of Hank's Balanced Salt Solution (HBSS), 10mM HEPES (4-(2-hydroxyethyl) piperazine-1-ethanesulfonic acid solution) and 0.1% bovine serum albumin (pH 7.4). The cells were seeded in black 384-well plates (Corning) at a density of 10'000 cells / 20µl assay buffer until the addition of compounds.
# Test antagonist compounds were serially diluted in dimethyl sulfoxide (DMSO) and spotted in 384-well plates. The compounds were then diluted in HBSS buffer supplemented with an EC80 concentration of MDL29,951 (3-(2-Carboxy-4,6-dichloroindol-3-yl)propionic acid) (GPR17 agonist) plus 3-Isobutyl-1-methylxanthine (IBMX) (0.5mM final concentration) and added to the cells at room temperature. Forskolin (15µM final concentration) was added 5 minutes after the test compounds and the cells were incubated at room temperature for 30 minutes. The assay was stopped by adding cAMP detection mix (containing detergents for cell lysis) for 90 minutes at room temperature.
# Cellular cAMP was measured using a Paradigm reader (Molecular Devices). The raw data was used to calculate the FRET signal based on the assay's P-factor as per cAMP kit instructions. The data was normalized to the maximal activity of a reference antagonist and dose response curves were fitted to the percent activity of the test compounds using a sigmoidal dose response model (Genedata Screener).
# Results in the hGPR17 cAMP assay are provided for compounds of formula I in Table 1 Table 1: […]
# Chain of human GPR17 short isoform (Q13304 29-367): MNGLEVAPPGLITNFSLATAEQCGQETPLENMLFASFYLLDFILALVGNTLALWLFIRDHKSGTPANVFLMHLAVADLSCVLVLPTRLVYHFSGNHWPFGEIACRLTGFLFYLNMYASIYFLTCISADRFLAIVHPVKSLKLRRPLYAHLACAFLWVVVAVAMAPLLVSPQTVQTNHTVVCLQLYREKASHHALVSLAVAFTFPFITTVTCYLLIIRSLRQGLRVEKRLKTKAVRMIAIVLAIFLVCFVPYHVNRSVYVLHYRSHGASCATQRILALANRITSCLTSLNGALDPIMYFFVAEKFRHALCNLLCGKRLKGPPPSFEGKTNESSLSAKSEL
row,pIC50,SMILES
1,7.47,"COc1nc(NS(=O)(=O)c2c[nH]c3c(-c4nccnc4F)c(Cl)ccc23)nc(OC)c1CC(F)F [Example 97, 6-chloro-N-[5-(2,2-difluoroethyl)-4,6-dimethoxy-pyrimidin-2-yl]-7-(3-fluoropyrazin-2-yl)-1H-indole-3-sulfonamide]"
2,7.38,"COc1nc(NS(=O)(=O)c2c[nH]c3c(-c4cncnc4)c(Cl)ccc23)nc(OC)c1OCC(F)F [Example 89, 6-chloro-N-[5-(2,2-difluoroethoxy)-4,6-dimethoxy-pyrimidin-2-yl]-7-(5-pyrimidyl)-1H-indole-3-sulfonamide]"
3,7.68,"COc1nc(NS(=O)(=O)c2c[nH]c3c(-c4ccncn4)c(Cl)ccc23)nc(OC)c1CC(F)F [Example 76, 6-chloro-N-[5-(2,2-difluoroethyl)-4,6-dimethoxy-pyrimidin-2-yl]-7-(4-pyrimidyl)-1H-indole-3-sulfonamide]"
4,7.42,"COc1nc(NS(=O)(=O)c2c[nH]c3c(-c4nccnc4F)c(Cl)ccc23)nc(OC)c1OC(F)F [Example 99, 6-chloro-N-[5-(difluoromethoxy)-4,6-dimethoxy-pyrimidin-2-yl]-7-(3-fluoropyrazin-2-yl)-1H-indole-3-sulfonamide]"
5,7.23,"COc1nc(NS(=O)(=O)c2c[nH]c3c(-c4cnco4)c(Cl)ccc23)nc(OC)c1OCC(F)F [Example 116, 6-chloro-N-[5-(2,2-difluoroethoxy)-4,6-dimethoxy-pyrimidin-2-yl]-7-oxazol-5-yl-1H-indole-3-sulfonamide]"
6,7.54,"COc1nc(NS(=O)(=O)c2c[nH]c3c(-c4cncc(C)n4)c(Cl)ccc23)nc(OC)c1CC(F)F [Example 86, 6-chloro-N-[5-(2,2-difluoroethyl)-4,6-dimethoxy-pyrimidin-2-yl]-7-(6-methylpyrazin-2-yl)-1H-indole-3-sulfonamide]"
7,7.51,"COc1nc(NS(=O)(=O)c2c[nH]c3c(-c4cncc(C)n4)c(Cl)ccc23)nc(OC)c1OC(F)F [Example 87, 6-chloro-N-[5-(difluoromethoxy)-4,6-dimethoxy-pyrimidin-2-yl]-7-(6-methylpyrazin-2-yl)-1H-indole-3-sulfonamide]"
8,7.64,"COc1nc(NS(=O)(=O)c2c[nH]c3c(-c4ccn(C)n4)c(Cl)ccc23)nc(OC)c1OCC(F)F [Example 61, 6-chloro-N-[5-(2,2-difluoroethoxy)-4,6-dimethoxy-pyrimidin-2-yl]-7-(1-methylpyrazol-3-yl)-1H-indole-3-sulfonamide]"

# The remaining lines, values behind:
row,SMILES,pIC50
1,"COc1nc(NS(=O)(=O)c2c[nH]c3c(-c4cnccn4)c(Br)ccc23)nc(OC)c1OC(F)F [Example 40, 6-bromo-N-[5-(difluoromethoxy)-4,6-dimethoxy-pyrimidin-2-yl]-7-pyrazin-2-yl-1H-indole-3-sulfonamide]",8.05
2,"COc1nc(NS(=O)(=O)c2c[nH]c3c(-c4ncccn4)c(F)ccc23)nc(OC)c1OCC(F)F [Example 26, N-[5-(2,2-difluoroethoxy)-4,6-dimethoxy-pyrimidin-2-yl]-6-fluoro-7-(2-pyrimidyl)-1H-indole-3-sulfonamide]",6.66
3,"COc1nc(NS(=O)(=O)c2c[nH]c3c(-c4nccn4C)c(F)ccc23)nc(OC)c1CC(F)F [Example 10, N-[5-(2,2-difluoroethyl)-4,6-dimethoxy-pyrimidin-2-yl]-6-fluoro-7-(1-methylimidazol-2-yl)-1H-indole-3-sulfonamide]",7.52
4,"COc1nc(NS(=O)(=O)c2c[nH]c3c(-c4cocn4)c(Cl)ccc23)nc(OC)c1OCC(F)F [Example 14, 6-chloro-N-[5-(2,2-difluoroethoxy)-4,6-dimethoxy-pyrimidin-2-yl]-7-oxazol-4-yl-1H-indole-3-sulfonamide]",7.49
5,"COc1nc(NS(=O)(=O)c2c[nH]c3c(-c4cccnn4)c(Cl)ccc23)nc(OC)c1OCC(F)F [Example 4, 6-chloro-N-[5-(2,2-difluoroethoxy)-4,6-dimethoxy-pyrimidin-2-yl]-7-pyridazin-3-yl-1H-indole-3-sulfonamide]",7.36
